Assay results from US20150307520A1, “NOVEL HETEROARYL AND HETEROCYCLE COMPOUNDS, COMPOSITIONS AND METHODS THEREOF” (HUTCHISON MEDIPHARMA LIMITED, priority 2012, published 2015).

Experiments:
Type in all cases: biochemical
[1] = biological target: p110α/p85α (Homo sapiens, UniProt P42336); assay: Transcreener KINASE Assay, kinase inhibition of p110α/p85α; conditions: for PI3Kα IH % @ 1 uM: 1 uM test compound
Protocol: PI3K kinases including p110α/p85α, p110δ/p85α and p110γ are purchased from Invitrogen, and p110β/p85α is from Millipore.
Primary screening data and IC50 values are measured using Transcreener™ KINASE Assay (Bellbrook, Catalog #3003-10K). […] It is a universal, homogenous, high throughput screening (HTS) technology using a far-red, competitive fluorescence polarization immunoassay based on the detection of ADP to monitor the activity of enzymes that catalyze group transfer reactions. Briefly, the Transcreener KINASE Assay is designed as a simple two-part, endpoint assay.
In the first step, the 25 ul kinase reaction is performed by preparing a reaction mixture containing 5 ul test compound (2% DMSO final concentration), 10 ul kinase, buffer (50 mM HEPES, 100 mM NaCl, 1 mM EGTA, 0.03% CHAPS, 3 mM MgCl2, and freshly supplemented 1 mM DTT), and 10 ul 30 uM PIP2/10 uM ATP. The plate is sealed and incubated for 80 min at room temperature. Next, 25 ul ADP detection mix is added per well. The plate is sealed again and incubated for 60 min at room temperature, and then measure fluorescence polarization by Tecan Infinite F500 Reader.
Data is analyzed and IC50s are generated using the add-in software for Microsoft Excel, Xlfit™ (version 2.0). IH %=(ADP amount under 2% DMSO-ADP amount under test compound)/ADP amount under 2% DMSO.

[2] = biological target: p110β/p85α (Homo sapiens, UniProt P42338); assay: Transcreener KINASE Assay, kinase inhibition of p110β/p85α; conditions: for PI3Kβ IH % @ 1 uM: 1 uM test compound; for IC50: read-out: PI3Kβ IC50
Method in brief: (§1)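 Kinase reactions run 80 min at room temperature, pH buffered with 50 mM HEPES plus 3 mM MgCl2 and 0.03% CHAPS; the PIP2/ATP mix added was 30 uM/10 uM. Generated ADP is then read by FP immunoassay.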

[3] = biological target: p110δ/p85α (Homo sapiens, UniProt O00329); assay: Transcreener KINASE Assay, kinase inhibition of p110δ/p85α; conditions: for PI3Kδ IH % @ 1 uM: 1 uM test compound; for IC50: read-out: PI3Kδ IC50
Chain of p110δ/p85α (O00329 whole entry): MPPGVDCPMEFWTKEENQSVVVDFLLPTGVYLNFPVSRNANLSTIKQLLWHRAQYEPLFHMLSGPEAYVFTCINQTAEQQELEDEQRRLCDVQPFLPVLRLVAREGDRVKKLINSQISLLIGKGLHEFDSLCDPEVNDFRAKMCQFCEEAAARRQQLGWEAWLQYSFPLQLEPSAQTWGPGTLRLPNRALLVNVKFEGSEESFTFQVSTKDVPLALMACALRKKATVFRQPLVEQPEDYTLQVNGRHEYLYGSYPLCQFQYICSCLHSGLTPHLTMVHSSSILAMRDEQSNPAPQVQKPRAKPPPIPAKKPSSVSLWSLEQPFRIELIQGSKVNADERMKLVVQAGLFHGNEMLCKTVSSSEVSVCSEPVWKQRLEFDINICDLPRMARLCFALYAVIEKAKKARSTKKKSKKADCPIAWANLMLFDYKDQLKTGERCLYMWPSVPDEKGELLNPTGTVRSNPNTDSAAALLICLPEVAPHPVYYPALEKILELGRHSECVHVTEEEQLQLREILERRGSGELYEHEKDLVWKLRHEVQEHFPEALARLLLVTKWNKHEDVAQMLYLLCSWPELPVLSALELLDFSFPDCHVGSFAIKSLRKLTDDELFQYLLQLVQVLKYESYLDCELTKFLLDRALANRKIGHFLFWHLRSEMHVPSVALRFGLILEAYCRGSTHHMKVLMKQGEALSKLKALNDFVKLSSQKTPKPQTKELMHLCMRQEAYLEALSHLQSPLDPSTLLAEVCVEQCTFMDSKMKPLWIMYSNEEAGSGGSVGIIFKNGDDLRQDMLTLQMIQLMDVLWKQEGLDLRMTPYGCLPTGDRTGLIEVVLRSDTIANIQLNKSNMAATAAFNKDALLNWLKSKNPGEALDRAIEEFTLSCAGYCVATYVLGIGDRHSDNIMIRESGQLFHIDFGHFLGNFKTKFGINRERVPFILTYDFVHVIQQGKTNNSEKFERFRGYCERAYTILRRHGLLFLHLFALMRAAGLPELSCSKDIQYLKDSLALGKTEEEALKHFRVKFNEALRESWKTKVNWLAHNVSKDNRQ
Chain of p110δ/p85α (P27986 whole entry partner): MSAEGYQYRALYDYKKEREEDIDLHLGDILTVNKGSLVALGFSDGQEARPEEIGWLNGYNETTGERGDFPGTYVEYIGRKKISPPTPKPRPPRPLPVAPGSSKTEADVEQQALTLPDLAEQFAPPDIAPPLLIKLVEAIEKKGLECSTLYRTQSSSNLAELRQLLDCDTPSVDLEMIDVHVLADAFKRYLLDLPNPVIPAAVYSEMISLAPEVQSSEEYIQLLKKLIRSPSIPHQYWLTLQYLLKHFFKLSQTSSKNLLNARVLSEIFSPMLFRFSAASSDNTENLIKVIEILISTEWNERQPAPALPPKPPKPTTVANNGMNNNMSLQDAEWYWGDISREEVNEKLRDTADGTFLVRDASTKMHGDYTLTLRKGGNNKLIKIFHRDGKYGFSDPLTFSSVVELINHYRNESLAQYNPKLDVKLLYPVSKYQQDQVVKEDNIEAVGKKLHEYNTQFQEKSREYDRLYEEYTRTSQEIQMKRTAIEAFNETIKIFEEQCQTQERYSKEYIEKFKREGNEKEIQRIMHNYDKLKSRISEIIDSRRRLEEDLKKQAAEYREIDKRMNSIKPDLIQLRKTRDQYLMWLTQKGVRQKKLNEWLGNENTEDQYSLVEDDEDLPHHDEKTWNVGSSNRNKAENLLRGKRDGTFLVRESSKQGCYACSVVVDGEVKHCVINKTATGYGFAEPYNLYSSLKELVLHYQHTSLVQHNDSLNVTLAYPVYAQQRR
Method in brief: as §1

[4] = biological target: p110γ (Homo sapiens, UniProt P48736); assay: Transcreener KINASE Assay, kinase inhibition of p110γ; conditions: for PI3Kγ IH % @ 1 uM: 1 uM test compound; for IC50: read-out: PI3Kγ IC50
Chain of p110γ (P48736 whole entry): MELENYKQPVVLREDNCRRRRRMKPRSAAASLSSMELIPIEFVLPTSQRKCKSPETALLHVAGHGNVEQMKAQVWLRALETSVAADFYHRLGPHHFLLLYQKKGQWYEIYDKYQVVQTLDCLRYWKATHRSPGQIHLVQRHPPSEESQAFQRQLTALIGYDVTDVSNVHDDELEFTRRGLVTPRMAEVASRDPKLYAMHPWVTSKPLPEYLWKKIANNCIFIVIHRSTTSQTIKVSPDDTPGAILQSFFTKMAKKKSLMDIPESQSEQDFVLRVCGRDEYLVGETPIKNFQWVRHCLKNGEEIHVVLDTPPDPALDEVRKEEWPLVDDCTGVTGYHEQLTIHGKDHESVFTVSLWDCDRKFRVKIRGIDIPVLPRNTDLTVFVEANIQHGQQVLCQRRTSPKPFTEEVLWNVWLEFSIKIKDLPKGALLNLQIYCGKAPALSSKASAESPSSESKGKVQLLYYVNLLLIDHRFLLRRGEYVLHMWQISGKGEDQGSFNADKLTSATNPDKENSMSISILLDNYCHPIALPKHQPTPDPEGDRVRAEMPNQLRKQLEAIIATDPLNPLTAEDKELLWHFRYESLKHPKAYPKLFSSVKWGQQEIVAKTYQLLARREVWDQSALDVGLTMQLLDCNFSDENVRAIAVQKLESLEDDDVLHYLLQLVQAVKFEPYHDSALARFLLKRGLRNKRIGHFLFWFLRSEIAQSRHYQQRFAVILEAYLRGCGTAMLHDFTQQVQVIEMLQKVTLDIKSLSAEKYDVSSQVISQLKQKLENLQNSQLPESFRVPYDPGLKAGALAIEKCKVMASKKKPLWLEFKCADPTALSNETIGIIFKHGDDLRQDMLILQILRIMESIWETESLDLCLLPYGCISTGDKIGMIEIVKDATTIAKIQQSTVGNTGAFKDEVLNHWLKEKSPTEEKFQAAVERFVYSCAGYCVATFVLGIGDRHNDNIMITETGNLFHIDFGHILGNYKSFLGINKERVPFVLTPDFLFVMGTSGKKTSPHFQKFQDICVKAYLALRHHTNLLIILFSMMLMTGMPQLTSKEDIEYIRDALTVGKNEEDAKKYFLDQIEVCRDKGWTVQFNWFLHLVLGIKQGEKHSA
Method in brief: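 Homogeneous endpoint format using recombinant enzymes; ADP measured by far-red FP immunoassay after 80 min reaction and 60 min detection, both at room temperature.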

Chain of p110α/p85α (P42336 whole entry): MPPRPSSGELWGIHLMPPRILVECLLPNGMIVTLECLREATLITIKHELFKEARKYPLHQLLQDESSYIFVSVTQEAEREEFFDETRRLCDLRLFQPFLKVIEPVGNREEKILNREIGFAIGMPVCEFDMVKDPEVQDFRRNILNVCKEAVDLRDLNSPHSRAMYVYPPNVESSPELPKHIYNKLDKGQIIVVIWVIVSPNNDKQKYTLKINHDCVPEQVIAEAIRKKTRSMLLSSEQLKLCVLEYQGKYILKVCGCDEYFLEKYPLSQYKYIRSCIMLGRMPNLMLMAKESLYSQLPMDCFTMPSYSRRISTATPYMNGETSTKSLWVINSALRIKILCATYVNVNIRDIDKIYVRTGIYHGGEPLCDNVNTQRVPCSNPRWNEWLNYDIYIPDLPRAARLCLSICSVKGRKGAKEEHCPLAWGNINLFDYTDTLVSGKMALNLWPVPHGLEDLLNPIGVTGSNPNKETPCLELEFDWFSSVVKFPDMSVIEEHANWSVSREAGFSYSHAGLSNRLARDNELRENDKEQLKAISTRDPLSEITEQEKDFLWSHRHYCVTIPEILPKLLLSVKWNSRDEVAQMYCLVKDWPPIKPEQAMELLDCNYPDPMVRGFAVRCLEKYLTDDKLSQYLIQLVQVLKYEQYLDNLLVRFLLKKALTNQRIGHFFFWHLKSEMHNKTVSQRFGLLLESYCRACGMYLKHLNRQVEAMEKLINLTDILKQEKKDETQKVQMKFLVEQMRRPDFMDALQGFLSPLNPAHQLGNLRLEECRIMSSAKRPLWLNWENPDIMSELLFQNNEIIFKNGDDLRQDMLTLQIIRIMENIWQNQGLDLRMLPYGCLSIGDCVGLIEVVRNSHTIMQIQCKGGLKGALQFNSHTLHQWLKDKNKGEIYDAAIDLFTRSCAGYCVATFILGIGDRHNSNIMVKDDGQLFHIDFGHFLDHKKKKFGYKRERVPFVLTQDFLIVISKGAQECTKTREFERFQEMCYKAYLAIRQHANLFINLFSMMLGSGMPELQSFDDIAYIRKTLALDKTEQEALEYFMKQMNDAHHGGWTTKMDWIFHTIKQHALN
Chain of p110α/p85α (P27986 whole entry partner): as the sequence (P27986 whole entry partner) above

| Structure (SMILES) | PI3Kα IH % @ 1 uM [1] [%] | PI3Kβ IH % @ 1 uM [2] [%] | PI3Kδ IH % @ 1 uM [3] [%] | PI3Kγ IH % @ 1 uM [4] [%] | IC50 [2] [µM] | IC50 [3] [µM] | IC50 [4] [µM] | IC50 ([1]; read-out: PI3Kα IC50) [µM] |
| --- | --- | --- | --- | --- | --- | --- | --- | --- |
| N#Cc1c[nH]c2ncnc(N3CC[C@H]3c3nn4cccc4c(=O)n3-c3ccccc3)c12 [Compound 6] | −10.6 | 28.0 | 91.5 | 58.6 | – | – | – | – |
| O=c1c2cccn2nc([C@@H]2CCN2c2ncnc3[nH]cnc23)n1-c1ccccc1 [Compound 7] | −18.6 | 17.7 | 50.4 | 16.6 | – | – | – | – |
| N#Cc1c[nH]c2ncnc(N3CCC[C@H]3c3nn4ccc(Cl)c4c(=O)n3-c3ccccc3)c12 [Compound 25] | 80.9 | 93.7 | >100 | 98.6 | 0.034 | 0.001 | – | – |
| O=c1c2c(Cl)ccn2nc([C@@H]2CCCN2c2ncnc3[nH]cnc23)n1-c1ccccc1 [Compound 26] | 20.3 | 88.7 | >100 | 93.3 | 0.091 | 0.002 | – | – |
| N#Cc1c[nH]c2ncnc(N3CC[C@H]3c3nn4ccc(Cl)c4c(=O)n3-c3ccccc3)c12 [Compound 28] | −0.3 | 49.9 | >100 | 92.2 | – | 0.014 | 0.032 | – |
| O=c1c2c(Cl)ccn2nc([C@@H]2CCN2c2ncnc3[nH]cnc23)n1-c1ccccc1 [Compound 29] | −1.5 | 18.5 | >100 | 72.5 | – | 0.084 | – | – |
| Nc1ncnc(N2CC[C@H]2c2nn3ccc(Cl)c3c(=O)n2-c2ccccc2)c1Cl [Compound 30] | −20.5 | 51.3 | >100 | 74.1 | – | 0.009 | 0.094 | – |
| N#Cc1c(N)ncnc1N1CC[C@H]1c1nn2ccc(Cl)c2c(=O)n1-c1ccccc1 [Compound 31] | −17.7 | 35.3 | >100 | 81.5 | – | 0.016 | 0.153 | – |
| N#Cc1c(N)ncnc1N1CCC[C@H]1c1nn2ccc(Cl)c2c(=O)n1-c1ccccc1 [Compound 32] | 54.5 | 96.7 | >100 | 94.8 | 0.013 | 0.001 | 0.008 | – |
| COc1cccc(-n2c([C@@H]3CCN3c3ncnc4[nH]cc(C#N)c34)nn3ccc(Cl)c3c2=O)c1 [Compound 34] | −2.5 | 12.4 | 96.8 | 84.6 | – | 0.029 | 0.203 | – |
| COc1cccc(-n2c([C@@H]3CCN3c3ncnc(N)c3C#N)nn3ccc(Cl)c3c2=O)c1 [Compound 35] | −6.6 | 24.7 | 94.1 | 61.2 | – | 0.057 | – | – |
| COc1cccc(-n2c([C@@H]3CCCN3c3ncnc4[nH]cnc34)nn3ccc(Cl)c3c2=O)c1 [Compound 36] | 6.4 | 60.9 | 99.1 | 90.8 | – | – | 0.035 | – |
| O=c1c2c(Cl)ccn2nc([C@@H]2CCCN2c2ncnc3[nH]cnc23)n1-c1cccc(F)c1 [Compound 38] | −3.3 | 54.8 | – | 93.5 | – | 0.003 | – | – |
| Cc1ccn2nc([C@@H]3CCCN3c3ncnc4[nH]cc(C#N)c34)n(-c3ccccc3)c(=O)c12 [Compound 42] | 71.8 | 79.8 | >100 | 91.2 | 0.186 | – | 0.005 | – |
| Cc1ccn2nc([C@@H]3CCCN3c3ncnc4[nH]cnc34)n(-c3ccccc3)c(=O)c12 [Compound 43] | 35.1 | 66.0 | >100 | 96.6 | – | 0.002 | 0.019 | – |
| Cc1ccn2nc([C@@H]3CCCN3c3nc(N)nc4[nH]cnc34)n(-c3ccccc3)c(=O)c12 [Compound 44] | 46.7 | 74.3 | >100 | 95.2 | 0.302 | 0.001 | 0.005 | – |
| N#Cc1c[nH]c2ncnc(N3CCC[C@H]3c3nn4ccc(Cl)c4c(=O)n3Cc3ccccc3)c12 [Compound 62] | 7.1 | 42.2 | 95.4 | >100 | – | 0.039 | 0.039 | – |
| CC(C)Cn1c([C@@H]2CCCN2c2ncnc3[nH]cc(C#N)c23)nn2ccc(Cl)c2c1=O [Compound 64] | 32.6 | 78.8 | 98.9 | 89.9 | 0.251 | 0.003 | 0.041 | – |
| N#Cc1c[nH]c2ncnc(N3CCC[C@H]3c3nn4ccc(Cl)c4c(=O)n3Cc3ccccn3)c12 [Compound 65] | 52.6 | 50.6 | >100 | >100 | – | 0.014 | 0.078 | – |
| N#Cc1c[nH]c2ncnc(N3CCC[C@H]3c3nn4ccc(Cl)c4c(=O)n3Cc3cccnc3)c12 [Compound 66] | 75.6 | 63.6 | >100 | >100 | – | 0.012 | 0.014 | – |
| N#Cc1c(N)ncnc1N1CCC[C@H]1c1nn2ccc(Cl)c2c(=O)n1Cc1ccccn1 [Compound 69] | 13.0 | 57.8 | 99.9 | 68.8 | – | 0.009 | – | – |
| N#Cc1c[nH]c2ncnc(N3C[C@H](O)C[C@H]3c3nn4ccc(Cl)c4c(=O)n3-c3ccccc3)c12 [Compound 70, 4-((2S,4R)-2-(5-chloro-4-oxo-3-phenyl-3,4-dihydropyrrolo[2,1-f][1,2,4]triazin-2-yl)-4-hydroxypyrrolidin-1-yl)-7H-pyrrolo[2,3-d]pyrimidine-5-carbonitrile] | 41.6 | 92.1 | 99.1 | >100 | 0.22 | 0.003 | 0.025 | – |
| O=c1c2c(Cl)ccn2nc([C@@H]2C[C@H](F)CN2c2ncnc3[nH]cnc23)n1-c1ccccc1 [Compound 73, 5-chloro-2-((2S,4S)-4-fluoro-1-(9H-purin-6-yl)pyrrolidin-2-yl)-3-phenylpyrrolo[2,1-f][1,2,4]triazin-4(3H)-one] | 33.6 | 69.5 | >100 | 92.7 | 0.42 | 0.003 | – | – |
| CC(Nc1nc(N)ncc1C(F)(F)F)c1cn2ccc(Cl)c2c(=O)n1-c1cccc(F)c1 (stereo not shown) [Compound 84] | −3.5 | 59.3 | >100 | 75.9 | – | 0.004 | 0.032 | – |
| CCC(Nc1ncnc2[nH]cnc12)c1cn2ccc(Cl)c2c(=O)n1-c1cccc(F)c1 (stereo not shown) [Compound 85, 3-(1-(9H-purin-6-ylamino)propyl)-8-chloro-2-(3-fluorophenyl)pyrrolo[1,2-a]pyrazin-1(2H)-one] | 27.4 | 74.7 | >100 | 87.8 | 0.311 | 0.001 | 0.03 | – |
| CCC(Nc1ncnc(N)c1C#N)c1cn2ccc(Cl)c2c(=O)n1-c1cccc(F)c1 (stereo not shown) [Compound 86] | 17.8 | 86.5 | 99.0 | 76.4 | 0.172 | 0.002 | 0.139 | – |
| CC(=O)c1cnc(N)nc1N1CC[C@H]1c1nn2ccc(Cl)c2c(=O)n1-c1ccccc1 [Compound 299] | – | 38.6 | 99.4 | – | 0.644 | 0.006 | – | 2.94 |
